Patent US11702404B2, “GLP-1R modulating compounds” (priority 2019, dated 2023)

Assays:
[1] = Microsomal stability, human liver microsomes (predicted hepatic clearance); conditions: predicted from in vitro microsomal stability data
GLP-1R = GLP-1R (Homo sapiens, UniProt P43220); test: GLP-1R activation: cAMP increase in CHO cells stably expressing GLP-1R; type: cell-based; conditions: cAMP increase, CHO cells stably expressing GLP-1R, 10 point dose response, 30 minutes incubation; read-out: EC50
GLP-1R, sequence (P43220 24-463): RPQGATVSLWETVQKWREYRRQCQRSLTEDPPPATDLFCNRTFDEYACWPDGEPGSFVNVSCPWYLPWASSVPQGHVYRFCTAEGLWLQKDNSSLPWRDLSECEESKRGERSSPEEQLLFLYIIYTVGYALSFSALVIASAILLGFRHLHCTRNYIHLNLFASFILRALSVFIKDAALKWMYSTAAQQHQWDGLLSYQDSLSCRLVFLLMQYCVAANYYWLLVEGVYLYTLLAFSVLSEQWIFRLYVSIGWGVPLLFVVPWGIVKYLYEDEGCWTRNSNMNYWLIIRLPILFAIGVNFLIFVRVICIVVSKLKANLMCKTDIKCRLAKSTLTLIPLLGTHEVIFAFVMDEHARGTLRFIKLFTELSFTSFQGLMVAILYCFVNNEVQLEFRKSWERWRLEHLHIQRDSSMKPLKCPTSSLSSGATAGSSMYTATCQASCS

Predicted Hepatic Clearance (Pred. Cl.) [1] [mL/min/kg]	EC50 (GLP-1R) [nM]	SMILES
<1.83	30	COCCn1c(Cc2ncc(-c3cccc(OCc4ccc(C#N)cc4F)n3)cc2F)nc2ccc(C(=O)O)cc21 [Example 60, 2-{[5-[6-[(4-cyano-2-fluoro-phenyl)methoxy]-2-pyridyl]-3-fluoro-2-pyridyl]methyl}-3-(2-methoxyethyl)benzimidazole-5-carboxylic acid]
<1.83	164	COCCn1c(Cc2ccc(-c3nsc(OCc4ccc(C#N)cc4F)n3)cc2F)nc2ccc(C(=O)O)cc21 [Example 63, 2-{[4-[5-[(4-cyano-2-fluoro-phenyl)methoxy]-1,2,4-thiadiazol-3-yl]-2-fluoro-phenyl]methyl}-3-(2-methoxyethyl)benzimidazole-5-carboxylic acid]
7.17	1230	COCCn1c(Cc2ccc(-c3cccc(OCc4ccc(C#N)cc4F)n3)cc2NC(C)=O)nc2ccc(C(=O)O)cc21 [Example 65, 2-(2-Acetamido-4-(6-((4-cyano-2-fluorobenzyl)oxy)pyridin-2-yl)benzyl)-1-(2-methoxyethyl)-1H-benzo[d]imidazole-6-carboxylic acid]
13.2	0.46	COc1cc(Cl)ccc1COc1cccc(-c2ccc(Cc3nc4ccc(C(=O)O)cc4n3CC3(CC#N)CC3)cc2F)n1 [Example 74, 2-(4-(6-((4-chloro-2-methoxybenzyl)oxy)pyridin-2-yl)-3-fluorobenzyl)-1-((1-(cyanomethyl)cyclopropyl)methyl)-1H-benzo[d]imidazole-6-carboxylic acid]
13.4	22.3	COCCn1c(Cc2c(F)cc(-c3csnc3OCc3ccc(C#N)cc3F)cc2F)nc2ccc(C(=O)O)cc21 [Example 76, 2-(4-(3-((4-cyano-2-fluorobenzyl)oxy)isothiazol-4-yl)-2,6-difluorobenzyl)-1-(2-methoxyethyl)-1H-benzo[d]imidazole-6-carboxylic acid]
8.83	1.04	N#CCC1(Cn2c(Cc3ccc(-c4ccnc(OCc5ccc(Cl)cc5F)n4)cc3F)nc3ccc(C(=O)O)cc32)CC1 [Example 79, 2-(4-(2-((4-chloro-2-fluorobenzyl)oxy)pyrimidin-4-yl)-2-fluorobenzyl)-1-((1-(cyanomethyl)cyclopropyl)methyl)-1H-benzo[d]imidazole-6-carboxylic acid]
5.17	2630	COCCn1c(Cc2ccc(-c3conc3OCc3ccc(C#N)cc3F)cc2F)nc2ccc(C(=O)O)cc21 [Example 80, 2-(4-(3-((4-cyano-2-fluorobenzyl)oxy)isoxazol-4-yl)-2-fluorobenzyl)-1-(2-methoxyethyl)-1H-benzo[d]imidazole-6-carboxylic acid]
<1.83	29.3	COCCn1c(Cc2ccc(-c3ccnc(OCc4ccc(C#N)cc4F)n3)cc2F)nc2ccc(C(=O)O)cc21 [Example 83, 2-(4-(2-((4-cyano-2-fluorobenzyl)oxy)pyrimidin-4-yl)-2-fluorobenzyl)-1-(2-methoxyethyl)-1H-benzo[d]imidazole-6-carboxylic acid]
8.5	296	COCCn1c(Cc2ccc(-c3csnc3OCc3ccc(C#N)cc3F)cc2F)nc2ccc(C(=O)O)cc21 [Example 88, 2-(4-(3-((4-cyano-2-fluorobenzyl)oxy)isothiazol-4-yl)-2-fluorobenzyl)-1-(2-methoxyethyl)-1H-benzo[d]imidazole-6-carboxylic acid]

More lines, now with the values behind:

SMILES	Predicted Hepatic Clearance (Pred. Cl.) [1] [mL/min/kg]	EC50 (GLP-1R) [nM]
COCCn1c(Cn2ccc(-c3cccc(OCc4ccc(C#N)cc4F)n3)cc2=O)nc2ccc(C(=O)O)cc21 [Example 61, 2-((6-((4-cyano-2-fluorobenzyl)oxy)-2′-oxo-[2,4′-bipyridin]-1′(2′H)-yl)methyl)-1-(2-methoxyethyl)-1H-benzo[d]imidazole-6-carboxylic acid]	<1.83	18
COCCn1c(Cc2ccc(-c3nc(OCc4ccc(C#N)cc4F)ns3)cc2F)nc2ccc(C(=O)O)cc21 [Example 62, 2-(4-(3-((4-cyano-2-fluorobenzyl)oxy)-1,2,4-thiadiazol-5-yl)-2-fluorobenzyl)-1-(2-methoxyethyl)-1H-benzo[d]imidazole-6-carboxylic acid]	6.7	1430
COCCn1c(Cc2ccc(-c3cccc(OCc4ccc(C#N)cc4F)n3)cc2N)nc2ccc(C(=O)O)cc21 [Example 64, 2-(2-amino-4-(6-((4-cyano-2-fluorobenzyl)oxy)pyridin-2-yl)benzyl)-1-(2-methoxyethyl)-1H-benzo[d]imidazole-6-carboxylic acid]	3.5	67
COCCn1c(Cc2ccc(-c3cccc(OCc4ccc(C#N)cc4F)n3)cc2NS(C)(=O)=O)nc2ccc(C(=O)O)cc21 [Example 66, 2-(4-(6-((4-Cyano-2-fluorobenzyl)oxy)pyridin-2-yl)-2-(methylsulfonamido)benzyl)-1-(2-methoxyethyl)-1H-benzo[d]imidazole-6-carboxylic acid]	12.3	1030
COCCn1c(Cc2ccc(-c3cccc(OCc4ccc(C#N)cc4F)n3)cc2F)nc2ncc(C(=O)O)cc21 [Example 71, 2-(4-(6-((4-cyano-2-fluorobenzyl)oxy)pyridin-2-yl)-2-fluorobenzyl)-1-(2-methoxyethyl)-1H-imidazo[4,5-b]pyridine-6-carboxylic]	<1.83	1.34
COCCn1c(Cc2c(F)cc(-c3csnc3OCc3ccc(Cl)cc3F)cc2F)nc2ccc(C(=O)O)cc21 [Example 72, 2-(4-(3-((4-chloro-2-fluorobenzyl)oxy)isothiazol-4-yl)-2,6-difluorobenzyl)-1-(2-methoxyethyl)-1H-benzo[d]imidazole-6-carboxylic acid]	12.3	23.8
COCCn1c(Cc2ccc(-c3nc(OCc4ccc(C#N)cc4F)c(F)cc3F)cc2F)nc2ccc(C(=O)O)cc21 [Example 73, 2-(4-(6-((4-cyano-2-fluorobenzyl)oxy)-3,5-difluoropyridin-2-yl)-2-fluorobenzyl)-1-(2-methoxyethyl)-1H-benzo[d]imidazole-6-carboxylic acid]	4.5	6.13
COc1cc(Cl)ccc1COc1nccc(-c2ccc(Cc3nc4ccc(C(=O)O)cc4n3CC3(CF)CC3)cc2F)n1 [Example 75, 2-(4-(2-((4-chloro-2-methoxybenzyl)oxy)pyrimidin-4-yl)-3-fluorobenzyl)-1-((1-(fluoromethyl)cyclopropyl)methyl)-1H-benzo[d]imidazole-6-carboxylic acid]	13.8	0.6
COCCn1c(Cc2ccc(-c3cc(F)cc(OCc4ccc(C#N)cc4OC)n3)cc2F)nc2ccc(C(=O)O)cc21 [Example 77, 2-(4-(6-((4-cyano-2-methoxybenzyl)oxy)-4-fluoropyridin-2-yl)-2-fluorobenzyl)-1-(2-methoxyethyl)-1H-benzo[d]imidazole-6-carboxylic]	9.17	0.19
COCCn1c(Cc2ccc(-c3nc(OCc4ccc(C#N)cc4F)ccc3C#N)cc2F)nc2ccc(C(=O)O)cc21 [Example 81, 2-(4-(3-cyano-6-((4-cyano-2-fluorobenzyl)oxy)pyridin-2-yl)-2-fluorobenzyl)-1-(2-methoxyethyl)-1H-benzo[d]imidazole-6-carboxylic acid]	10.7	291
COCCn1c(Cc2ccc(-c3ccc(N)c(OCc4ccc(C#N)cc4F)c3)cc2F)nc2ccc(C(=O)O)cc21 [Example 82, 2-((4′-amino-3′-((4-cyano-2-fluorobenzyl)oxy)-3-fluoro-[1,1′-biphenyl]-4-yl)methyl)-1-(2-methoxyethyl)-1H-benzo[d]imidazole-6-carboxylic acid]	3.67	264
COCCn1c(Cc2ccc(-c3nc(OCc4ccc(C#N)cc4F)cs3)cc2F)nc2ccc(C(=O)O)cc21 [Example 84, 2-(4-(4-((4-cyano-2-fluorobenzyl)oxy)thiazol-2-yl)-2-fluorobenzyl)-1-(2-methoxyethyl)-1H-benzo[d]imidazole-6-carboxylic acid]	6.33	54.3
COCCn1c(Cc2ccc(-c3cc(C#N)cc(OCc4ccc(C#N)cc4F)n3)cc2F)nc2ccc(C(=O)O)cc21 [Example 85, 2-(4-(4-cyano-6-((4-cyano-2-fluorobenzyl)oxy)pyridin-2-yl)-2-fluorobenzyl)-1-(2-methoxyethyl)-1H-benzo[d]imidazole-6-carboxylic acid]	3.67	4.9
COCCn1c(Cc2ccc(-c3ccc(C#N)c(OCc4ccc(C#N)cc4F)n3)cc2F)nc2ccc(C(=O)O)cc21 [Example 86, 2-(4-(5-cyano-6-((4-cyano-2-fluorobenzyl)oxy)pyridin-2-yl)-2-fluorobenzyl)-1-(2-methoxyethyl)-1H-benzo[d]imidazole-6-carboxylic acid]	<1.83	274
COCCn1c(Cc2ccc(-c3ccc(F)c(OCc4ccc(C#N)cc4F)n3)cc2F)nc2ccc(C(=O)O)cc21 [Example 87, 2-(4-(6-((4-cyano-2-fluorobenzyl)oxy)-5-fluoropyridin-2-yl)-2-fluorobenzyl)-1-(2-methoxyethyl)-1H-benzo[d]imidazole-6-carboxylic acid]	<1.83	5.66
COCCn1c(Cc2ccc(-n3ccc(OCc4ccccc4)n3)cc2F)nc2ccc(C(=O)O)cc21 [Example 89, 2-(4-(3-(benzyloxy)-1H-pyrazol-1-yl)-2-fluorobenzyl)-1-(2-methoxyethyl)-1H-benzo[d]imidazole-6-carboxylic acid]	8.83	1650
